According to patent US9994528B2, “Certain amino-pyridines and amino-triazines, compositions thereof, and methods for their use” (Cytokinetics, Inc., priority 2010, dated 2018):

Test system: rabbit skeletal myofibrils (approximately 90% fast fibers)
Assay: Activation of fast skeletal myofibrils (PUMA coupled-enzyme ATPase assay)
Format: biochemical
Conditions: AC1.4 = concentration at which the compound increased the enzymatic activity by 40%; myofibril suspension at calcium level pCa25; PM12 buffer pH 6.8
Method: Preparation of fast skeletal myofibrils. Rabbit skeletal myofibrils were prepared based upon the method of Herrmann et al. (Biochem. 32(28):7255-7263(1993). Myofibrils were prepared from rabbit psoas muscle purchased from Pel-Freez Biologicals (Arkansas) within 2 days of ordering, stored on ice. Minced muscle was homogenized in 10 volumes of ice-cold “standard” buffer (50 mM Tris, pH 7.4, 0.1 M potassium acetate, 5 mM KCl, 2 mM DTT, 0.2 mM PMSF, 10 μM leupeptin, 5 μM pepstatin, and 0.5 mM sodium azide) containing 5 mM EDTA and 0.5% Triton X-100 using an Omni-Macro homogenizer. Myofibrils were recovered by low speed centrifugation (3000 rpm for 10 minutes) and washed 2 times in the Triton X-100 containing buffer to ensure removal of cellular membrane. Following the Triton washes, myofibrils were washed 3 times in “standard” buffer containing 2 mM magnesium acetate. A final wash in assay buffer (12 mM PIPES, pH 6.8, 60 mM KCl, 1 mM DTT) was performed and brought to 10% sucrose for flash freezing in liquid nitrogen and storage at −80° C.
Activation of Fast Skeletal Myofibrils. Fast fiber activators were identified by measuring the enzymatic activity of muscle myofibril preparations using the proprietary PUMA™ (see, e.g., U.S. Pat. Nos. 6,410,254, 6,743,599, 7,202,051, and 7,378,254) assay system. Myofibril preparations consisted of rabbit skeletal muscle (approximately 90% fast fibers) that had been mechanically homogenized and washed with a detergent (triton X-100) to remove cellular membranes. This preparation retained all of the sarcomeric components in a native conformation and the enzymatic activity was still regulated by calcium. Compounds were tested using a myofibril suspension and a level of calcium sufficient to increase enzymatic activity of the myofibrils to 25% of their maximal rate (termed pCa25). Enzymatic activity was tracked via a pyruvate kinase and lactate dehydrogenase-coupled enzyme system. This assay regenerates myosin-produced ADP into ATP by oxidizing NADH, producing an absorbance change at 340 nm. The buffering system was 12 mM Pipes, 2 mM MgCl2, 1 mM DTT at pH 6.8 (PM12 buffer).
Using procedures similar to those described herein, utilizing reagents and intermediates commercially available (e.g., Sigma-Aldrich,) or readily synthesized by one of skill in the art, the compounds in Table 2 were synthesized, characterized and tested. AC1.4 values were determined according to the procedure described in Example 25, and the reported median AC1.4 values are as follows: A=<1 uM; B=1-10 uM; C=10-20 uM; D=>20 uM.

Mean AC1.4 | SMILES
A (A=<1 uM) | NC(=O)c1ccc(F)c(-c2cnc(NCC3(c4ncccc4Cl)CCC3)nn2)c1 [3-[3-({[(3-chloro(2-pyridyl))cyclobutyl]methyl}amino)(1,2,4-triazin-6-yl)]-4-fluorobenzamide]
A (A=<1 uM) | O=C(O)c1ccc(F)c(-c2cnc(NCC3(c4ncccc4Cl)CCC3)nn2)c1 [3-[3-({[(3-chloro(2-pyridyl))cyclobutyl]methyl}amino)(1,2,4-triazin-6-yl)]-4-fluorobenzoic acid]
B (B=1-10 uM) | NC(=O)c1cccc(-c2cnc(NCC3(c4ncccc4F)CCC3)nn2)c1 [3-[3-({[(3-fluoro-2-pyridyl)cyclobutyl]methyl}amino)-1,2,4-triazin-6-yl]benzamide]
B (B=1-10 uM) | NC(=O)c1cccc(-c2cnc(NC[C@]3(c4ncccc4F)C[C@H](F)C3)c(F)c2)c1 [3-[5-fluoro-6-({[3-fluoro-1-(3-fluoro(2-pyridyl))cyclobutyl]methyl}amino)-3-pyridyl]benzamide]
A (A=<1 uM) | NC(=O)c1cccc(-c2ncc(NCC3(c4ccc(F)cc4)CCC3)nn2)c1 [3-[6-({[(4-fluorophenyl)cyclobutyl]methyl}amino 1,2,4-triazin-3-yl]benzamide]
D (D=>20 uM) | CC(C)(Nc1ncc(-c2ccc(C(N)=O)cc2F)nn1)c1ncccc1F [3-fluoro-4-(3-{[1-(3-fluoro(2-pyridyl))-isopropyl]amino}(1,2,4-triazin-6-yl))benzamide]
D (D=>20 uM) | CC(C)(C)Nc1ncc(-c2cc(C(N)=O)ccc2F)nn1 [3-{3-[(tert-butyl)amino](1,2(4-triazin-6-yl)}-4-fluorobenzamide]
D (D=>20 uM) | NC(=O)c1cccc(-c2ccc(NC(=O)Cc3ccc(F)cc3)nc2)c1 [3-{6-[2-(4-fluorophenyl)acetylamino]-3-pyridyl}benzamide]
B (B=1-10 uM) | CC(C)(CNc1ccc(-c2ccc(C(N)=O)cc2)cn1)c1ccc(F)cc1 [4-(6-{[2-(4-fluorophenyl)-2-methylpropyl]amino}-3-pyridyl)benzamide]
B (B=1-10 uM) | CC(C)(Nc1ncc(-c2cc(C(N)=O)ccc2F)nn1)c1ncccc1F [4-fluoro-3-(3-{[1-(3-fluoro(2-pyridyl))-isopropyl]amino}(1,2,4-triazin-6-yl))benzamide]
C (C=10-20 uM) | CC(C)(Nc1ncc(-c2cc(C(=O)O)ccc2F)nn1)c1ncccc1F [4-fluoro-3-(3-{[1-(3-fluoro(2-pyridyl))-isopropyl]amino}(1,2,4-triazin-6-yl))benzoic acid]
B (B=1-10 uM) | Cc1ccc(F)c(C(C)(C)Nc2ncc(-c3cc(C(N)=O)ccc3F)nn2)n1 [4-fluoro-3-(3-{[1-(3-fluoro-6-methyl(2-pyridyl))-isopropyl]amino}(1,2,4-triazin-6-yl))benzamide]
A (A=<1 uM) | CC(C)(Nc1ncc(-c2cc(C(N)=O)ccc2F)nn1)c1ccc(F)cc1 [4-fluoro-3-(3-{[1-(4-fluorophenyl)-isopropyl]amino}(1,2,4-triazin-6-yl))benzamide]
B (B=1-10 uM) | Cc1nc(C(C)(C)Nc2ncc(-c3cc(C(N)=O)ccc3F)nn2)ccc1F [4-fluoro-3-(3-{[1-(5-fluoro-6-methyl(2-pyridyl))-isopropyl]amino}(1,2,4-triazin-6-yl))benzamide]
C (C=10-20 uM) | Cc1cccc(C(C)(C)Nc2ncc(-c3cc(C(N)=O)ccc3F)nn2)n1 [4-fluoro-3-(3-{[1-methyl-1-(6-methyl(2-pyridyl))ethyl]amino}(1,2,4-triazin-6-yl))benzamide]
B (B=1-10 uM) | NC(=O)c1ccc(F)c(-c2cnc(NCC3(c4ccccn4)CCC3)nn2)c1 [4-fluoro-3-(3-{[(2-pyridylcyclobutyl)methyl]amino}(1,2,4-triazin-6-yl))benzamide]
B (B=1-10 uM) | NC(=O)c1ccc(F)c(-c2cnc(NC3(c4ncccc4F)CCC3)nn2)c1 [4-fluoro-3-(3-{[(3-fluoro(2-pyridyl))cyclobutyl]amino}(1,2,4-triazin-6-yl))benzamide]
C (C=10-20 uM) | CC(Nc1ncc(-c2cc(C(N)=O)ccc2F)nn1)c1ncccc1F (stereo not drawn) [4-fluoro-3-(3-{[(3-fluoro(2-pyridyl))ethyl]amino}(1,2,4-triazin-6-yl))benzamide]
B (B=1-10 uM) | NC(=O)c1ccc(F)c(-c2cnc(NC3(c4ccc(F)cc4)CCC3)nn2)c1 [4-fluoro-3-(3-{[(4-fluorophenyl)cyclobutyl]amino}(1,2,4-triazin-6-yl))benzamide]

The remaining lines, values behind:

SMILES | Mean AC1.4
CC(C)(Nc1ncc(-c2cc(C(N)=O)ccc2F)nn1)c1ncccc1C(F)F [3-[3-({1-[3-(difluoromethyl)(2-pyridyl)]-isopropyl}amino)(1,2,4-triazin-6-yl)]-4-fluorobenzamide] | C (C=10-20 uM)
CC(C)(Nc1ncc(-c2cc(C#N)ccc2F)nn1)c1ncccc1C(F)F [3-[3-({1-[3-(difluoromethyl)(2-pyridyl)]-isopropyl}amino)(1,2,4-triazin-6-yl)]-4-fluorobenzenecarbonitrile] | D (D=>20 uM)
CC(C)(Nc1ncc(-c2cc(C(N)=O)ccc2F)nn1)c1cccc(OC(F)F)n1 [3-[3-({1-[6-(difluoromethoxy)(2-pyridyl)]-isopropyl}amino)(1,2,4-triazin-6-yl)]-4-fluorobenzamide] | A (A=<1 uM)
CC(C)(Nc1ncc(-c2cc(C(N)=O)ccc2F)nn1)c1cccc(C(F)F)n1 [3-[3-({1-[6-(difluoromethyl)(2-pyridyl)]-isopropyl}amino)(1,2,4-triazin-6-yl)]-4-fluorobenzamide] | B (B=1-10 uM)
CC(C)(Nc1ncc(-c2cc(C#N)ccc2F)nn1)c1cccc(C(F)F)n1 [3-[3-({1-[6-(difluoromethyl)(2-pyridyl)]-isopropyl}amino)(1,2,4-triazin-6-yl)]-4-fluorobenzenecarbonitrile] | B (B=1-10 uM)
NC(=O)c1ccc(F)c(-c2cnc(NCC3(c4ncccc4Cl)CC(F)(F)C3)nn2)c1 [3-[3-({[1-(3-chloro(2-pyridyl))-3,3-difluorocyclobutyl]methyl}amino)(1,2,4-triazin-6-yl)]-4-fluorobenzamide] | A (A=<1 uM)
NC(=O)c1ccc(F)c(-c2cnc(NC[C@]3(c4ncccc4Cl)C[C@H](F)C3)nn2)c1 [3-[3-({[1-(3-chloro(2-pyridyl))-3-fluorocyclobutyl]methyl}amino)(1,2,4-triazin-6-yl)]-4-fluorobenzamide] | A (A=<1 uM)
NC(=O)c1cccc(-c2cnc(NC[C@]3(c4ncccc4Cl)C[C@H](F)C3)nn2)c1 [3-[3-({[1-(3-chloro(2-pyridyl))-3-fluorocyclobutyl]methyl}amino)-1,2,4-triazin-6-yl]benzamide] | A (A=<1 uM)
N#Cc1cccc(-c2cnc(NC[C@]3(c4ncccc4Cl)C[C@H](F)C3)nn2)c1 [3-[3-({[1-(3-chloro(2-pyridyl))-3-fluorocyclobutyl]methyl}amino)-1,2,4-triazin-6-yl]benzenecarbonitrile] | B (B=1-10 uM)
NC(=O)c1ccc(O)c(-c2cnc(NC[C@]3(c4ncccc4F)C[C@H](F)C3)nn2)c1 [3-[3-({[3-fluoro-1-(3-fluoro(2-pyridyl))cyclobulyl]methyl}amino)(1,2,4-triazin-6-yl)]-4-hydroxybenzamide] | A (A=<1 uM)
NC(=O)c1cccc(-c2cnc(NC[C@]3(c4ncccc4F)C[C@H](F)C3)nn2)c1 [3-[3-({[3-fluoro-1-(3-fluoro(2-pyridyl))cyclobutyl]methyl}amino)-1,2,4-triazin-6-yl]benzamide] | A (A=<1 uM)
NC(=O)c1ccc(F)c(-c2cnc(NC3(c4cccc(OC(F)F)n4)CCC3)nn2)c1 [3-[3-({[6-(difluoromethoxy)(2-pyridyl)]cyclobulyl}amino)(1,2,4-triazin-6-yl)]-4-fluorobenzamide] | A (A=<1 uM)
CC(Nc1ncc(-c2cc(C(N)=O)ccc2F)nn1)c1cccc(OC(F)F)n1 (stereo not drawn) [3-[3-({[6-(difluoromethoxy)(2-pyridyl)]ethyl}amino)(1,2,4-triazin-6-yl)]-4-fluorobenzamide] | C (C=10-20 uM)
NC(=O)c1ccc(F)c(-c2cnc(NCc3cccc(OC(F)F)n3)nn2)c1 [3-[3-({[6-(difluoromethoxy)(2-pyridyl)]methyl}amino)(1,2,4-triazin-6-yl)]-4-fluorobenzamide] | D (D=>20 uM)
